Common to all, as to type: biochemical
One experiment concerns the target KDR kinase (Homo sapiens, UniProt P35968, DEL940-989/E990V). The experiment can be described thus: KDR kinase assay K2 (as K1, 2.1 nM enzyme, 2 h pre-incubation, 1.0 mM ATP). To be noted: Method K2; read-out: KDR Data (IC50). How it is done:
(§1) IC50 values were calculated from a series of percent inhibition values determined at a range of inhibitor concentrations using software routines as implemented in the GraphPad Prism software package.

Another experiment deals with T1, Abl kinase (Homo sapiens, UniProt P00519).
T1 sequence (P00519 229-512): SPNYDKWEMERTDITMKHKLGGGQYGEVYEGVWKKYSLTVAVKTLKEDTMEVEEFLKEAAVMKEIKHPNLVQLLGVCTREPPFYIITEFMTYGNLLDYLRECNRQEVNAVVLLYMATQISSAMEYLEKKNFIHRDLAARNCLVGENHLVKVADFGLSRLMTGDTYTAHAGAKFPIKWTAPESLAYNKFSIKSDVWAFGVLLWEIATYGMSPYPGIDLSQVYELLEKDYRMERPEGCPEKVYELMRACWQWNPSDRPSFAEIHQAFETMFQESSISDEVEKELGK
The experiment can be described thus: Abl kinase assay A1 (pyruvate kinase/lactate dehydrogenase coupled, spectrophotometric). To be noted: Method A1; read-out: Abl Data (IC50). How it is done: as §1

Another experiment addresses B-Raf(V599E) kinase (Homo sapiens, UniProt P15056, V600E). Briefly: B-Raf(V599E) kinase assay B1 (construct 1, MEK1 substrate, coupled spectrophotometric). How it is done: The test compounds were incubated with the reaction mixtureat 30° C. for 2 h. […] The reaction rate was calculated using the […] time frame. […] IC50 values were calculated from a series of percent inhibition values determined at a range of inhibitor concentrations using software routines as implemented in the GraphPad Prism software package.

The target of experiment [1] is phosphorylated p-38-alpha kinase (Homo sapiens, UniProt Q16539). The experiment can be described thus: P-38 alpha kinase assay P1 (coupled spectrophotometric, 2 h pre-incubation). Conditions: method P1 (2 h pre-incubation); read-out: P-38 Data.
phosphorylated p-38-alpha kinase, sequence (Q16539 1-360 isoform Q16539-2): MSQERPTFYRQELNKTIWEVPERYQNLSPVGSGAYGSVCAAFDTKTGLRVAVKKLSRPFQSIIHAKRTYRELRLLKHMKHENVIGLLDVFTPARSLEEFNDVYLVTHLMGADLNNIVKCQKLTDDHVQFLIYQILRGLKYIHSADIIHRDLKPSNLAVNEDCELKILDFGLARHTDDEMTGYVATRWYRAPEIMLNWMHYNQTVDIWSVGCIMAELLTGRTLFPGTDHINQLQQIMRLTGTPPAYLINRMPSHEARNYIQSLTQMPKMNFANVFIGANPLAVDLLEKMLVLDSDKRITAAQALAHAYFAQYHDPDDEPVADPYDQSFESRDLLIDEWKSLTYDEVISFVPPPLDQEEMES

KDR kinase, sequence (P35968 with tags, fused parts or gaps DEL940-989/E990V): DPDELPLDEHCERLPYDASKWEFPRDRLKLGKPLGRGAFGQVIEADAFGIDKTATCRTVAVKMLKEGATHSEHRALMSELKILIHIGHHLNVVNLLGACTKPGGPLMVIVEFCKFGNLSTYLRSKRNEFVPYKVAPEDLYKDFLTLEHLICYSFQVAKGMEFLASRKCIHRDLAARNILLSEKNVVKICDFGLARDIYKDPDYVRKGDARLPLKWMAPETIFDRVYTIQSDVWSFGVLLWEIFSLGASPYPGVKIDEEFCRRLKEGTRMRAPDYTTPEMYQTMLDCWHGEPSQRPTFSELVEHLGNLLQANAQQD
B-Raf(V599E) kinase, sequence (P15056 with tags, fused parts or gaps V600E): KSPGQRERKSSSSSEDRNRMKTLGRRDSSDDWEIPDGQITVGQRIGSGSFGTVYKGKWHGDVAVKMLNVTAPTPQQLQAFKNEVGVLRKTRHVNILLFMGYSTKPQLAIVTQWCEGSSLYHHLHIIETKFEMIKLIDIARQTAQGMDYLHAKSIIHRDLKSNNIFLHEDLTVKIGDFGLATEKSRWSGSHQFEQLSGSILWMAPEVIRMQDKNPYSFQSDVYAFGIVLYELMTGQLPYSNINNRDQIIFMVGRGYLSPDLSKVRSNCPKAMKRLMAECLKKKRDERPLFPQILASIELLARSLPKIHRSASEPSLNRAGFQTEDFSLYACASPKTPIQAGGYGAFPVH

`CC(C)(C)c1cc(NC(=O)Nc2cc(F)c(F)c(F)c2)n(-c2cccc(C#N)c2)n1` [Example 12, 1-(3-t-butyl-1-(3-cyanophenyl)-1H-pyrazol-5-yl)-3-(3,4,5-trifluorophenyl)urea]: the IC50 on KDR kinase was 280 nM; on Abl kinase it was 390 nM.
On to `CC(C)(C)c1cc(NC(=O)Nc2cccc(F)c2F)n(-c2ccc(CC(=O)O)cc2)n1` [Example 382, 2-(4-(3-t-butyl-5-(3-(2,3-difluorophenyl)ureido)-1H-pyrazol-1-yl)phenyl)acetic acid], for which the IC50 at KDR kinase came out at 10300 nM; at B-Raf(V599E) kinase, 77 nM.
`CC(C)(C)c1cc(NC(=O)Nc2cccc(Cl)c2Cl)n(-c2cccc(CC(=O)N3CCCC(C(=O)O)C3)c2)n1` (centres unmarked) [Example 398, 1-[2-(3-{3-t-butyl-5-[3-(2,3-dichlorophenyl)-ureido]-1H-pyrazol-1-yl}-phenyl)acetyl]piperidine-3-carboxylic acid]: the IC50 at KDR kinase was 2700 nM; in experiment [1] it was 26 nM; against B-Raf(V599E) kinase, 12 nM.
`CC(C)(C)c1cc(NC(=O)Nc2ccc(Cl)cc2)n(-c2cnc3ccccc3c2)n1` [Example 56, 1-(3-t-butyl-1-(quinolin-3-yl)-1H-pyrazol-5-yl)-3-(4-chlorophenyl)urea]: the IC50 on KDR kinase turned out to be 3100 nM; on Abl kinase, 4800 nM.
Turning to `CC(C)(C)c1cc(NC(=O)Nc2cccc(F)c2F)n(-c2ccc3ncccc3c2)n1` [Example 283, 1-(3-t-butyl-1-(quinolin-6-yl)-1H-pyrazol-5-yl)-3-(2,3-difluorophenyl)urea], the IC50 stood at 440 nM on KDR kinase and 6.4 nM on B-Raf(V599E) kinase.
On to `COc1cccc(-n2nc(C(C)(C)C)cc2NC(=O)Nc2cccc(Br)c2)c1` [Example 232, 1-(3-t-butyl-1-(3-methoxyphenyl)-1H-pyrazol-5-yl)-3-(3-bromophenyl)urea], for which the IC50 on KDR kinase came out at 2600 nM; against B-Raf(V599E) kinase, 38 nM.
In the case of `CCOC(=O)C1CCN(C(=O)Cc2ccc(-n3nc(C(C)(C)C)cc3NC(=O)Nc3cccc(Cl)c3Cl)cc2)CC1` [Example 497], the IC50 on KDR kinase stood at 1200 nM; against B-Raf(V599E) kinase, 47 nM.
With `CC(C)(C)c1cc(NC(=O)Nc2cccc(Cl)c2Cl)n(-c2cccc(CC(=O)N3CCC[C@@H]3C(=O)O)c2)n1` [Example 400, (2R)-1-[2-(3-{3-t-butyl-5-[3-(2,3-dichlorophenyl)ureido]-1H-pyrazol-1-yl}phenyl)acetyl]pyrrolidine-2-carboxylic acid], the IC50 turned out to be 3700 nM on KDR kinase, 46 nM in experiment [1] and 19 nM against B-Raf(V599E) kinase.
As to `CC(C)(C)c1cc(NC(=O)Nc2cccc3ccccc23)n(-c2ccc3c(c2)CNCC3)n1` [Example 349], the IC50 at KDR kinase stood at 4100 nM; in experiment [1] it was 30 nM.
Take `CC(C(N)=O)c1cccc(-n2nc(C(C)(C)C)cc2NC(=O)Nc2cccc(Cl)c2Cl)c1` (centres unmarked) [Example 249, 1-(1-(3-(1-amino-1oxopropan-2-yl)phenyl)-3-t-butyl-1H-pyrazol-5-yl)-3-(2,3-dichlorophenyl)urea]: the IC50 turned out to be 590 nM at KDR kinase, 11 nM in experiment [1] and 4.5 nM on B-Raf(V599E) kinase.
Regarding `CC(C)(C)c1cc(NC(=O)Nc2cccc(Cl)c2Cl)n(-c2cccc(CC(=O)N3CCS(=O)(=O)CC3)c2)n1` [Example 396, 1-(3-t-butyl-1-{3-[2-(1,1-dioxo-1[…]6-thiomorpholin-4-yl)-2-oxoethyl]phenyl}-1H-pyrazol-5-yl)-3-(2,3-dichlorophenyl)urea], the IC50 at KDR kinase came out at 3100 nM; on B-Raf(V599E) kinase it was 32 nM.
Consider `COc1ccc(-n2nc(C(C)(C)C)cc2NC(=O)Nc2cccc(Cl)c2)cc1` [Example 240, 1-[3-t-butyl-1-(4-methoxyphenyl)-1H-pyrazol-5-yl]-3-(3-chlorophenyl)urea], for which the IC50 on KDR kinase was 3700 nM; in experiment [1], 470 nM; against B-Raf(V599E) kinase, 50 nM.
For `CC(C)(C)c1cc(NC(=O)Nc2ccc(F)c(F)c2F)n(-c2cccc(C#N)c2)n1` [Example 210, 1-(3-t-butyl-1-(3-cyanophenyl)-1H-pyrazol-5-yl)-3-(2,3,4-trifluorophenyl)urea], the figures for the IC50 (on KDR kinase; in experiment [1]) were 110 nM and 24 nM, respectively.
Regarding `CC(C)(C)c1cc(NC(=O)Nc2cccc(Cl)c2Cl)n(-c2cccc(Br)c2)n1` [Example 49, 1-(1-(3-bromophenyl)-3-t-butyl-1H-pyrazol-5-yl)-3-(2,3-dichlorophenyl)urea], the IC50 stood at 86 nM on KDR kinase and 3.8 nM at B-Raf(V599E) kinase.
As to `Cn1[nH]c(=O)n(Cc2cccc(-n3nc(C(C)(C)C)cc3NC(=O)Nc3cccc(Cl)c3Cl)c2)c1=O` [Example 268, 1-{5-t-butyl-2-[3-(1-methyl-3,5-dioxo-[1,2,4]triazolidin-4-ylmethyl)-phenyl]-2H-pyrazol-3-yl}-3-(2,3-dichloro-phenyl)-urea], the IC50 at KDR kinase stood at 2600 nM; at B-Raf(V599E) kinase it was 11 nM.
Consider `CC(C)(C)c1cc(NC(=O)Nc2cccc(F)c2F)n(-c2cccc(C#N)c2)n1` [Example 4, 1-[3-t-butyl-1-(3-cyan-phenyl)-1H-pyrazol-5-yl]-3-(2,3-difluorophenyl)urea], for which the IC50 was 310 nM on KDR kinase and 2900 nM on Abl kinase.
In the case of `CC(C)(C)c1cc(NC(=O)Nc2ccc(F)c(F)c2F)n(-c2ccc3[nH]c(=O)ccc3c2)n1` [Example 333, 1-(3-t-butyl-1-(2-oxo-1,2-dihydroquinolin-6-yl)-1H-pyrazol-5-yl)-3-(2,3,4-trifluorophenyl)urea], the IC50 was 230 nM at KDR kinase and 3.4 nM at B-Raf(V599E) kinase.
As for `CC(C)(C)c1cc(NC(=O)Nc2cccc(Cl)c2Cl)n(-c2ccc(CC(=O)N3CCC(C(=O)O)CC3)cc2)n1` [Example 498, 1-[2-(4-{3-t-butyl-5-[3-(2,3-dichlorophenyl)ureido]-1H-pyrazol-1-yl}-phenyl)acetyl]piperidine-4-carboxylic acid], the IC50 at KDR kinase stood at 1700 nM; in experiment [1] it was 9 nM; on B-Raf(V599E) kinase, 52 nM.
For `CC(C)(C)c1cc(NC(=O)Nc2cccc3ccccc23)n(-c2ccc3c(c2)CCC(=O)N3)n1` [Example 198, 1-(3-t-butyl-1-(2-oxo-1,2,3,4-tetrahydroquinolin-6-yl)-1H-pyrazol-5-yl)-3-(naphthalen-1-yl)urea], the IC50 on KDR kinase was found to be 1300 nM; in experiment [1], 59 nM.
On to `COc1ccc(-n2nc(C(C)(C)C)cc2NC(=O)Nc2cccc(Cl)c2Cl)cc1` [Example 18, 1-[3-t-butyl-1-(4-methoxyphenyl)-1H-pyrazol-5-yl]-3-(2,3-dichlorophenyl)urea], for which the IC50 at KDR kinase was 240 nM; at Abl kinase, 830 nM; at B-Raf(V599E) kinase, 458 nM.
With `COc1ccc(-n2nc(C(C)(C)C)cc2NC(=O)Nc2ccccc2F)cc1` [Example 237, 1-[3-t-butyl-1-(4-methoxyphenyl)-1H-pyrazol-5-yl]-3-(2-fluorophenyl)urea], the IC50 is 4900 nM on KDR kinase, 580 nM in experiment [1] and 59 nM on B-Raf(V599E) kinase.
`CC(C)(C)c1cc(NC(=O)Nc2cccc(Cl)c2Cl)n(-c2cccc(CC(=O)N3CCC(C(=O)O)CC3)c2)n1` [Example 345, 1-[2-(3-{3-t-butyl-5-[3-(2,3-dichlorophenyl)ureido]-1H-pyrazol-1-yl}phenyl)acetyl]piperidine-4-carboxylic acid]: the IC50 at KDR kinase stood at 2900 nM; in experiment [1], 19 nM.
On to `COc1cccc(-n2nc(C(C)(C)C)cc2NC(=O)Nc2ccc(Cl)cc2Cl)c1` [Example 233, 1-(3-t-butyl-1-(3-methoxyphenyl)-1H-pyrazol-5-yl)-3-(2,4-dichlorophenyl)urea], for which the IC50 at KDR kinase is 410 nM; in experiment [1] it was 50 nM; against B-Raf(V599E) kinase it was 28 nM.
For the compound `CC(C)(C)c1cc(NC(=O)Nc2ccccc2F)n(-c2cccc(CCC(=O)O)c2)n1` [Example 265, 3-(3-{3-t-butyl-5-[3-(2-fluorophenyl)ureido]-1H-pyrazol-1-yl}-phenyl)propionic acid], the IC50 is 9800 nM on KDR kinase and 14 nM at B-Raf(V599E) kinase.
Turning to `CC(C)(C)c1cc(NC(=O)Nc2cccc3ccccc23)n(-c2cccc(CCO)c2)n1` [Example 341, 1-{3-t-butyl-1-[3-(2-hydroxyethyl)phenyl]-1H-pyrazol-5-yl}-3-(naphthalen-1-yl)urea], the IC50 amounted to 5500 nM on KDR kinase and 27 nM in experiment [1].
With `CC(C)(C)c1cc(NC(=O)Nc2cccc(F)c2F)n(-c2ccc(CCO)cc2)n1` [Example 262, 1-(3-t-butyl-1-(4-(2-hydroxyethyl)phenyl)-1H-pyrazol-5-yl)-3-(2,3-difluoro-phenyl)urea], the values for the IC50 at KDR kinase and on B-Raf(V599E) kinase were 2700 nM and 34 nM, respectively.
With `CC(C)(C)c1cc(NC(=O)Nc2cc(F)c(F)cc2F)n(-c2ccc3[nH]c(=O)ccc3c2)n1` [Example 330], the results for the IC50 at KDR kinase and against B-Raf(V599E) kinase were 390 nM and 3.2 nM, respectively.
For `CC(C)(C)c1cc(NC(=O)Nc2cc(F)ccc2F)n(-c2cccc(C#N)c2)n1` [Example 213, 1-(3-t-butyl-1-(3-cyanophenyl)-1H-pyrazol-5-yl)-3-(2,5-difluorophenyl)urea], the figures for the IC50 (on KDR kinase; in experiment [1]; against B-Raf(V599E) kinase) were 210 nM, 67 nM and 12 nM, respectively.

The record behind these values is patent US8163756B2 (priority 2004, dated 2012).
